Common to all, as to settings: Compound concentration 10 µM
Assay [1] deals with 5-hydroxytryptamine receptor 2A (Homo sapiens) (UniProt P28223).
Description: PDSP Primary Binding target: HTR2A - Compounds are tested at 10 uM concentration, plate are incubated at room temperature in the dark for 90 minutes. Reaction are stopped by vacuum filtration onto 0.3% polyethyleneimine soaked filter mats using Filtermate harvester. Scintilation cocktail is then melted onto microwave-dried filters on a hot plate and the radio activity is counted in Microbia counter.
Assay [2] has as its target T1, Muscarinic acetylcholine receptor M2 (Homo sapiens) (UniProt P08172).
T1 sequence (whole entry): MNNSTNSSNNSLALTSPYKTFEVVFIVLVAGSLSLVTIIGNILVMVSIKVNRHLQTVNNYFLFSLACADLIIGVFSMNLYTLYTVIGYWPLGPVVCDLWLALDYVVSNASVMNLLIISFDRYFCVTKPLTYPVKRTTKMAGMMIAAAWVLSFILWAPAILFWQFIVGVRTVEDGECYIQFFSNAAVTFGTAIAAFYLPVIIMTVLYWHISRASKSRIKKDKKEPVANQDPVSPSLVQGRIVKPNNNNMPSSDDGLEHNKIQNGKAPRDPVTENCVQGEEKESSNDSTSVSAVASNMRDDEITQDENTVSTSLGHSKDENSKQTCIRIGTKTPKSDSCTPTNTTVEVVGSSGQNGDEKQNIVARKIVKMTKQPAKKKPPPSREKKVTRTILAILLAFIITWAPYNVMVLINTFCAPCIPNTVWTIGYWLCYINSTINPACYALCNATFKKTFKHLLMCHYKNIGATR
Description: PDSP Primary Binding target: CHRM2 - Compounds are tested at 10 uM concentration, plate are incubated at room temperature in the dark for 90 minutes. Reaction are stopped by vacuum filtration onto 0.3% polyethyleneimine soaked filter mats using Filtermate harvester. Scintilation cocktail is then melted onto microwave-dried filters on a hot plate and the radio activity is counted in Microbia counter.

The target in assay [3] is D(2) dopamine receptor (Homo sapiens) (UniProt P14416).
Sequence of D(2) dopamine receptor (Homo sapiens) (P14416 whole entry): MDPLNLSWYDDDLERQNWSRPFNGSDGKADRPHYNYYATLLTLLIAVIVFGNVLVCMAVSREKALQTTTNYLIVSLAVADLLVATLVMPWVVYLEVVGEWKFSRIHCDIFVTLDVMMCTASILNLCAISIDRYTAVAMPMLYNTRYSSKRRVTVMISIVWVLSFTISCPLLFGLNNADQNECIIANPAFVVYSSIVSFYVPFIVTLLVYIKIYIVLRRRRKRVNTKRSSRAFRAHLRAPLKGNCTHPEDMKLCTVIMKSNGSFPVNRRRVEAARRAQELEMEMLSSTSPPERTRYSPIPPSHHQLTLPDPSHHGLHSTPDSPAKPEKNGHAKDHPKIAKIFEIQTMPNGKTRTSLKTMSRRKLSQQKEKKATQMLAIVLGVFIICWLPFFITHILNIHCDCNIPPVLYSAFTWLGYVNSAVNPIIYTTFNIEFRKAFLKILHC
Description: PDSP Primary Binding target: DRD2 - Compounds are tested at 10 uM concentration, plate are incubated at room temperature in the dark for 90 minutes. Reaction are stopped by vacuum filtration onto 0.3% polyethyleneimine soaked filter mats using Filtermate harvester. Scintilation cocktail is then melted onto microwave-dried filters on a hot plate and the radio activity is counted in Microbia counter.
In assay [4] the target is Delta-type opioid receptor (Homo sapiens) (UniProt P41143).
Sequence of Delta-type opioid receptor (Homo sapiens) (P41143 whole entry): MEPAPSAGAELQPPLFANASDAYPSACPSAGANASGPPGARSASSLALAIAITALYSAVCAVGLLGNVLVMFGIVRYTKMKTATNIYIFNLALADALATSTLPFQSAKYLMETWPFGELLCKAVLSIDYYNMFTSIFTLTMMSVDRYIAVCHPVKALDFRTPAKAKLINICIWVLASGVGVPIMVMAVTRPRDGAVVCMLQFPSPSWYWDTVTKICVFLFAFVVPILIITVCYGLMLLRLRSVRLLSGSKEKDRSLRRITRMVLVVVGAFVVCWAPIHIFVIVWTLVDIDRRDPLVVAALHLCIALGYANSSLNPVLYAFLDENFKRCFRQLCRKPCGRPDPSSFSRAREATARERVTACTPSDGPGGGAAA
Description: PDSP Primary Binding target: OPRD1 - Compounds are tested at 10 uM concentration, plate are incubated at room temperature in the dark for 90 minutes. Reaction are stopped by vacuum filtration onto 0.3% polyethyleneimine soaked filter mats using Filtermate harvester. Scintilation cocktail is then melted onto microwave-dried filters on a hot plate and the radio activity is counted in Microbia counter.
In assay [5] the target is 5-hydroxytryptamine receptor 1B (Homo sapiens) (UniProt P28222).
Description: PDSP Primary Binding target: HTR1B - Compounds are tested at 10 uM concentration, plate are incubated at room temperature in the dark for 90 minutes. Reaction are stopped by vacuum filtration onto 0.3% polyethyleneimine soaked filter mats using Filtermate harvester. Scintilation cocktail is then melted onto microwave-dried filters on a hot plate and the radio activity is counted in Microbia counter.
The target of assay [6] is 5-hydroxytryptamine receptor 1E (Homo sapiens) (UniProt P28566).
Sequence of 5-hydroxytryptamine receptor 1E (Homo sapiens) (P28566 whole entry): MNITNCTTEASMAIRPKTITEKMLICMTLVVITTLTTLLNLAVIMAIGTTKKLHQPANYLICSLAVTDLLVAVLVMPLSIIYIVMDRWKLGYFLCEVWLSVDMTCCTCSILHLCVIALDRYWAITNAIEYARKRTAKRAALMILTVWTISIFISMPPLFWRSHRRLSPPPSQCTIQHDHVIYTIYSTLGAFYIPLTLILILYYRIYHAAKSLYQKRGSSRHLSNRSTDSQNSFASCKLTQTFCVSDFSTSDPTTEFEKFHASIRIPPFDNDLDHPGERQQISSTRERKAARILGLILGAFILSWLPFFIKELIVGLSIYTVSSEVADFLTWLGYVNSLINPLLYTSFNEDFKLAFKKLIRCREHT
Description: PDSP Primary Binding target: HTR1E - Compounds are tested at 10 uM concentration, plate are incubated at room temperature in the dark for 90 minutes. Reaction are stopped by vacuum filtration onto 0.3% polyethyleneimine soaked filter mats using Filtermate harvester. Scintilation cocktail is then melted onto microwave-dried filters on a hot plate and the radio activity is counted in Microbia counter.
The target in assay [7] is Sodium-dependent serotonin transporter (Homo sapiens) (UniProt P31645).
Sequence of Sodium-dependent serotonin transporter (Homo sapiens) (P31645 whole entry, looked up): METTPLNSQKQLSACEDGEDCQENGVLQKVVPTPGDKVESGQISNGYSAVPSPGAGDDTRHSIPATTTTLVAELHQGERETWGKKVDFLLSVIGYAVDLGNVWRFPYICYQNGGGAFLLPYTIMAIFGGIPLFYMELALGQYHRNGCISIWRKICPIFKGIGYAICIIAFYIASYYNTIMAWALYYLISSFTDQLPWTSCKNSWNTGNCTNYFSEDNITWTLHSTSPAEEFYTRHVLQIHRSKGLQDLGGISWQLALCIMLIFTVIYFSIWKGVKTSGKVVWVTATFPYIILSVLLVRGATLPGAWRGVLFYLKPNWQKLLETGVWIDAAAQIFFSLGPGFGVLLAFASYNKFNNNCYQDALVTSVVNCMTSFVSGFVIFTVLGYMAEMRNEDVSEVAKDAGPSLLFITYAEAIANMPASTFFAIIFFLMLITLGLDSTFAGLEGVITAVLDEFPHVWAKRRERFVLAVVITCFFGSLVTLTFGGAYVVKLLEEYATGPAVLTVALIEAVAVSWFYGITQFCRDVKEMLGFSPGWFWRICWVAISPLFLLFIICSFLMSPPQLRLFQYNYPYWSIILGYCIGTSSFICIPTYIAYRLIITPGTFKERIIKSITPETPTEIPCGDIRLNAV
Description: PDSP Primary Binding target: SLC6A4 - Compounds are tested at 10 uM concentration, plate are incubated at room temperature in the dark for 90 minutes. Reaction are stopped by vacuum filtration onto 0.3% polyethyleneimine soaked filter mats using Filtermate harvester. Scintilation cocktail is then melted onto microwave-dried filters on a hot plate and the radio activity is counted in Microbia counter.
Assay [8] has as its target Histamine H3 receptor (Homo sapiens) (UniProt Q9Y5N1).
Description: PDSP Primary Binding target: HRH3 - Compounds are tested at 10 uM concentration, plate are incubated at room temperature in the dark for 90 minutes. Reaction are stopped by vacuum filtration onto 0.3% polyethyleneimine soaked filter mats using Filtermate harvester. Scintilation cocktail is then melted onto microwave-dried filters on a hot plate and the radio activity is counted in Microbia counter.
The target of assay [9] is Kappa-type opioid receptor (Homo sapiens) (UniProt P41145).
Sequence of Kappa-type opioid receptor (Homo sapiens) (P41145 whole entry): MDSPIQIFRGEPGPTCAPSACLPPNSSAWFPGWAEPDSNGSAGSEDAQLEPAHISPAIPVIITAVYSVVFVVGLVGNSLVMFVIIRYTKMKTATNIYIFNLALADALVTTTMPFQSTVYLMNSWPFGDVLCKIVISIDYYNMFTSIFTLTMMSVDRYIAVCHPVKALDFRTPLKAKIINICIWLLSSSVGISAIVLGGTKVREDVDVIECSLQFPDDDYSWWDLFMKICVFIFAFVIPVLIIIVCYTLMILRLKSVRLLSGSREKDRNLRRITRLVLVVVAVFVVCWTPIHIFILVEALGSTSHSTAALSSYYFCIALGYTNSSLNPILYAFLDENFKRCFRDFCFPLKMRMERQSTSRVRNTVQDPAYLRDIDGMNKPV
Description: PDSP Primary Binding target: OPRK1 - Compounds are tested at 10 uM concentration, plate are incubated at room temperature in the dark for 90 minutes. Reaction are stopped by vacuum filtration onto 0.3% polyethyleneimine soaked filter mats using Filtermate harvester. Scintilation cocktail is then melted onto microwave-dried filters on a hot plate and the radio activity is counted in Microbia counter.
In assay [10] the target is Translocator protein (Homo sapiens) (UniProt P30536).
Description: PDSP Primary Binding target: TSPO - Compounds are tested at 10 uM concentration, plate are incubated at room temperature in the dark for 90 minutes. Reaction are stopped by vacuum filtration onto 0.3% polyethyleneimine soaked filter mats using Filtermate harvester. Scintilation cocktail is then melted onto microwave-dried filters on a hot plate and the radio activity is counted in Microbia counter.
In assay [11] the target is T2, Alpha-2C adrenergic receptor (Homo sapiens) (UniProt P18825).
T2 sequence (whole entry): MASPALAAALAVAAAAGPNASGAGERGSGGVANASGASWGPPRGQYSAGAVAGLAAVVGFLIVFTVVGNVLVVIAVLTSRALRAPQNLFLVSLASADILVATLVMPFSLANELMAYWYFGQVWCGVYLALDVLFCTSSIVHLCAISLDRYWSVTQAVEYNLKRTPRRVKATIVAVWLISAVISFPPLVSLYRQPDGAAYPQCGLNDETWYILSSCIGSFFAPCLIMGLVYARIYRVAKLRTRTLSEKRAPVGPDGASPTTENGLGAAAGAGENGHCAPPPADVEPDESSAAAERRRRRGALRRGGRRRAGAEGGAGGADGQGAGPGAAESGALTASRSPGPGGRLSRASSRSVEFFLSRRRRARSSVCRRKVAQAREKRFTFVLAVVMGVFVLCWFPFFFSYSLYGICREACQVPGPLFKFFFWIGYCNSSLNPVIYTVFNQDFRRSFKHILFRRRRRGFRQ
Description: PDSP Primary Binding target: ADRA2C - Compounds are tested at 10 uM concentration, plate are incubated at room temperature in the dark for 90 minutes. Reaction are stopped by vacuum filtration onto 0.3% polyethyleneimine soaked filter mats using Filtermate harvester. Scintilation cocktail is then melted onto microwave-dried filters on a hot plate and the radio activity is counted in Microbia counter.

Assay [12] deals with T3, Alpha-1A adrenergic receptor (Homo sapiens) (UniProt P35348).
T3 sequence (whole entry): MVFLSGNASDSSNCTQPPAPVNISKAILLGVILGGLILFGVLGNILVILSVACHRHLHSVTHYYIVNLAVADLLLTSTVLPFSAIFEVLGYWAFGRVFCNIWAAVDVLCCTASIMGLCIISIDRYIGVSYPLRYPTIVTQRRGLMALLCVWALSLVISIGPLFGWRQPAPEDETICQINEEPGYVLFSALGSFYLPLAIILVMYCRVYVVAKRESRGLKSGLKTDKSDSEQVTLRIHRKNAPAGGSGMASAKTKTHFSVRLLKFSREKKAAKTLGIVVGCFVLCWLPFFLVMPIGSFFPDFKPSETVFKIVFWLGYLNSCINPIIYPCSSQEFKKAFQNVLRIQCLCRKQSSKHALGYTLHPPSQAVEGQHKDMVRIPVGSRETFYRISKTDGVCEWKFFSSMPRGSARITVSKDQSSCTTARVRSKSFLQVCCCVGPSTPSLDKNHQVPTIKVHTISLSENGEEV
Description: PDSP Primary Binding target: ADRA1A - Compounds are tested at 10 uM concentration, plate are incubated at room temperature in the dark for 90 minutes. Reaction are stopped by vacuum filtration onto 0.3% polyethyleneimine soaked filter mats using Filtermate harvester. Scintilation cocktail is then melted onto microwave-dried filters on a hot plate and the radio activity is counted in Microbia counter.

Assay [13] concerns the target D(1B) dopamine receptor (Homo sapiens) (UniProt P21918).
Description: PDSP Primary Binding target: DRD5 - Compounds are tested at 10 uM concentration, plate are incubated at room temperature in the dark for 90 minutes. Reaction are stopped by vacuum filtration onto 0.3% polyethyleneimine soaked filter mats using Filtermate harvester. Scintilation cocktail is then melted onto microwave-dried filters on a hot plate and the radio activity is counted in Microbia counter.
Assay [14] concerns the target 5-hydroxytryptamine receptor 6 (Homo sapiens) (UniProt P50406).
Description: PDSP Primary Binding target: HTR6 - Compounds are tested at 10 uM concentration, plate are incubated at room temperature in the dark for 90 minutes. Reaction are stopped by vacuum filtration onto 0.3% polyethyleneimine soaked filter mats using Filtermate harvester. Scintilation cocktail is then melted onto microwave-dried filters on a hot plate and the radio activity is counted in Microbia counter.
In assay [15] the target is Sigma non-opioid intracellular receptor 1 (Homo sapiens) (UniProt Q99720).
Sequence of Sigma non-opioid intracellular receptor 1 (Homo sapiens) (Q99720 whole entry): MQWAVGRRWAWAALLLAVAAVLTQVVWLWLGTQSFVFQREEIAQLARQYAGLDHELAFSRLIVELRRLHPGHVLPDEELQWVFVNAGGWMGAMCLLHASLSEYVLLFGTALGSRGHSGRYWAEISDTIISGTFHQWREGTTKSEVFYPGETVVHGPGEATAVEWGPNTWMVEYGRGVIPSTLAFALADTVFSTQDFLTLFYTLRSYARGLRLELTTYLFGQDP
Description: PDSP Primary Binding target: SIGMAR1 - Compounds are tested at 10 uM concentration, plate are incubated at room temperature in the dark for 90 minutes. Reaction are stopped by vacuum filtration onto 0.3% polyethyleneimine soaked filter mats using Filtermate harvester. Scintilation cocktail is then melted onto microwave-dried filters on a hot plate and the radio activity is counted in Microbia counter.
The target of assay [16] is Sigma intracellular receptor 2 (Homo sapiens) (UniProt Q5BJF2).
Sequence of Sigma intracellular receptor 2 (Homo sapiens) (Q5BJF2 whole entry): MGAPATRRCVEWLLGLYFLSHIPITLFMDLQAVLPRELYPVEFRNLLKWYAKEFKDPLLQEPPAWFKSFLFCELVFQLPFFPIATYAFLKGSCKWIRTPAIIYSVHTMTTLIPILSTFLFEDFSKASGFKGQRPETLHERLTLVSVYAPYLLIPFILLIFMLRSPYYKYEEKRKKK
Description: PDSP Primary Binding target: TMEM97 - Compounds are tested at 10 uM concentration, plate are incubated at room temperature in the dark for 90 minutes. Reaction are stopped by vacuum filtration onto 0.3% polyethyleneimine soaked filter mats using Filtermate harvester. Scintilation cocktail is then melted onto microwave-dried filters on a hot plate and the radio activity is counted in Microbia counter.
In assay [17] the target is 5-hydroxytryptamine receptor 7 (Homo sapiens) (UniProt P34969).
Sequence of 5-hydroxytryptamine receptor 7 (Homo sapiens) (P34969 whole entry): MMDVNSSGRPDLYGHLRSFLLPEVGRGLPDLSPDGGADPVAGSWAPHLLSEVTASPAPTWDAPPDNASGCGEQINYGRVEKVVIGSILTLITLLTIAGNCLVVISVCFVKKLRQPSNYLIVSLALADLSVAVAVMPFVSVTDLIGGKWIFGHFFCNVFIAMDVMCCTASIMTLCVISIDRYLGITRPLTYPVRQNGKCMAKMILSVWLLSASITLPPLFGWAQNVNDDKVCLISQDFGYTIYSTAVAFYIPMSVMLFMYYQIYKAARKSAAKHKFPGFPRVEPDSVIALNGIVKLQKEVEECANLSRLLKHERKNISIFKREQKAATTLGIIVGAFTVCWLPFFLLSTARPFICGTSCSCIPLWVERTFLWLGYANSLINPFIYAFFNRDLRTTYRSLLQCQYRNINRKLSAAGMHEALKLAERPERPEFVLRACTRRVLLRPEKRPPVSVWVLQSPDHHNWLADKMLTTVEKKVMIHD
Description: PDSP Primary Binding target: HTR7 - Compounds are tested at 10 uM concentration, plate are incubated at room temperature in the dark for 90 minutes. Reaction are stopped by vacuum filtration onto 0.3% polyethyleneimine soaked filter mats using Filtermate harvester. Scintilation cocktail is then melted onto microwave-dried filters on a hot plate and the radio activity is counted in Microbia counter.
Assay [18] concerns the target D(1A) dopamine receptor (Homo sapiens) (UniProt P21728).
Description: PDSP Primary Binding target: DRD1 - Compounds are tested at 10 uM concentration, plate are incubated at room temperature in the dark for 90 minutes. Reaction are stopped by vacuum filtration onto 0.3% polyethyleneimine soaked filter mats using Filtermate harvester. Scintilation cocktail is then melted onto microwave-dried filters on a hot plate and the radio activity is counted in Microbia counter.
In assay [19] the target is T4, 5-hydroxytryptamine receptor 3A (Homo sapiens) (UniProt P46098).
T4 sequence (whole entry): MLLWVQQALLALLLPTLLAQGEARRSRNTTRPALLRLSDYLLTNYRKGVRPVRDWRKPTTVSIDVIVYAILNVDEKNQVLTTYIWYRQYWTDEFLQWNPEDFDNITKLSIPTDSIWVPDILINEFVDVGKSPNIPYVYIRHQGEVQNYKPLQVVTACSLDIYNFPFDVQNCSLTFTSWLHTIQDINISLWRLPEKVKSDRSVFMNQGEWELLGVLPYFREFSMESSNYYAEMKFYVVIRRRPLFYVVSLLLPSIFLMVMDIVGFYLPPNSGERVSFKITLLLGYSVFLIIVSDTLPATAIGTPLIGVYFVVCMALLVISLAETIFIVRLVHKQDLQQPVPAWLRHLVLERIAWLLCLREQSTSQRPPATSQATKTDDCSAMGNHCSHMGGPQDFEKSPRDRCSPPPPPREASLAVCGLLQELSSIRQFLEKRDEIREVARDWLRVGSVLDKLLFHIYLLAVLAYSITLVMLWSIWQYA
Description: PDSP Primary Binding target: HTR3A - Compounds are tested at 10 uM concentration, plate are incubated at room temperature in the dark for 90 minutes. Reaction are stopped by vacuum filtration onto 0.3% polyethyleneimine soaked filter mats using Filtermate harvester. Scintilation cocktail is then melted onto microwave-dried filters on a hot plate and the radio activity is counted in Microbia counter.

Assay [20] deals with Beta-1 adrenergic receptor (Homo sapiens) (UniProt P08588).
Description: PDSP Primary Binding target: ADRB1 - Compounds are tested at 10 uM concentration, plate are incubated at room temperature in the dark for 90 minutes. Reaction are stopped by vacuum filtration onto 0.3% polyethyleneimine soaked filter mats using Filtermate harvester. Scintilation cocktail is then melted onto microwave-dried filters on a hot plate and the radio activity is counted in Microbia counter.

Sequence of D(1B) dopamine receptor (Homo sapiens) (P21918 whole entry): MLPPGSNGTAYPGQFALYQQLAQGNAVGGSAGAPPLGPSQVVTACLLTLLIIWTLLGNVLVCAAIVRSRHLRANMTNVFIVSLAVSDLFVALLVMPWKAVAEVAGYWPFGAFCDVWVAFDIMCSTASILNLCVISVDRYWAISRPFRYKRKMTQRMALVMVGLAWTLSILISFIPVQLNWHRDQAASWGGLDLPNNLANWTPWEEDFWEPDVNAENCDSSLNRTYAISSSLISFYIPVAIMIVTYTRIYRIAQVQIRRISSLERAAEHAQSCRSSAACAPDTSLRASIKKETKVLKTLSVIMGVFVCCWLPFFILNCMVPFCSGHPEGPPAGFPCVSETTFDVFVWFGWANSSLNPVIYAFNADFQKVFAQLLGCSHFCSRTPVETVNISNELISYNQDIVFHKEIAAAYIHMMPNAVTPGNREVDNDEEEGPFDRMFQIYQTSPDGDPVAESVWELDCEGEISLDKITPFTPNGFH
Sequence of 5-hydroxytryptamine receptor 2A (Homo sapiens) (P28223 whole entry): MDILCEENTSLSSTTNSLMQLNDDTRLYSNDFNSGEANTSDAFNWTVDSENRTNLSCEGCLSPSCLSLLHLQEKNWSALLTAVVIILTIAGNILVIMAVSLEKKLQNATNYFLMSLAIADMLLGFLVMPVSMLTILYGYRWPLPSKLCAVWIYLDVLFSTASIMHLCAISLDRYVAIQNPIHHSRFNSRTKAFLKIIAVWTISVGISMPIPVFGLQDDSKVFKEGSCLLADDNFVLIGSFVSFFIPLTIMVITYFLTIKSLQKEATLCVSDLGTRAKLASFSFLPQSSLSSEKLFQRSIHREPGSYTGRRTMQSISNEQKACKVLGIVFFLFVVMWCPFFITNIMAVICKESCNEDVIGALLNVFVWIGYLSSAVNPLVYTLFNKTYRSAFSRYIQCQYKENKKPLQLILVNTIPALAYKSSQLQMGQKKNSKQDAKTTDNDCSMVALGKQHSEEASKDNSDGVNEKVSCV
Sequence of Histamine H3 receptor (Homo sapiens) (Q9Y5N1 whole entry): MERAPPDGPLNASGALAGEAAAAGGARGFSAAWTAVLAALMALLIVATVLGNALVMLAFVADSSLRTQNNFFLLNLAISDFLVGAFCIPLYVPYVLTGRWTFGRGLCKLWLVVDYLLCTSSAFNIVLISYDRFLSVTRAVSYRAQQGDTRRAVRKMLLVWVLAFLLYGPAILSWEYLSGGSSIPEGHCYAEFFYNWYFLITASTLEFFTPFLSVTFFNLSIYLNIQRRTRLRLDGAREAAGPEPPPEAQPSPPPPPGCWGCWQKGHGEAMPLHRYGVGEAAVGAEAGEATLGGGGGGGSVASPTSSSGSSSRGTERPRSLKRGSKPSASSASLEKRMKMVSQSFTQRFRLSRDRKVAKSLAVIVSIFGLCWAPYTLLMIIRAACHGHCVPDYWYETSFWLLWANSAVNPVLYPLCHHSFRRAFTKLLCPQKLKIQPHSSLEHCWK
Sequence of D(1A) dopamine receptor (Homo sapiens) (P21728 whole entry): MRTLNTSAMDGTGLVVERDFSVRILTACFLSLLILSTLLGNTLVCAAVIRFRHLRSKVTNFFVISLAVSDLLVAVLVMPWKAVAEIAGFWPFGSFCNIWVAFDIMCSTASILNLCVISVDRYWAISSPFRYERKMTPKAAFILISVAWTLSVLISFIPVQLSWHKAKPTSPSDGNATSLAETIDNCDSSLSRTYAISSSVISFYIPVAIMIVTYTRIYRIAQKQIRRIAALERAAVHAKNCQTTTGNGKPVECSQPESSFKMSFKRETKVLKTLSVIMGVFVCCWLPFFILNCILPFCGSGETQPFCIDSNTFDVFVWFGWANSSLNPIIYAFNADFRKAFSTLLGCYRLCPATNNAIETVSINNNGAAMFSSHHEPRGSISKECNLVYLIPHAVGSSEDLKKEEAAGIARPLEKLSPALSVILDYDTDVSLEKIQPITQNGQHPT

In general, inhibition refers to the drop in the measured response relative to a control, in per cent. Regarding `O=C(O)CC1CCC2(CC1)CCN(c1cc(OC(F)(F)F)ccc1Cl)CC2`, the inhibition in assay [1] is 26.1%; in [2] it was 27.1%; in assay [3], 18.6%; in assay [4], -0.66%; in assay [5] it was -0.21%; in assay [6] it was 16.8%. Also, the inhibition in assay [7] is 29.8%; in [8], 7.59%; in assay [9], 10.9%; in [10], 7.83%; in [11] it was 0.13%; in assay [12], -7.1%. The inhibition in [13] was -2.48%; in assay [14], 14.2%; in [15], -0.46%; in [16] it was -1.25%.
Consider `NCCc1c[nH]c2ccc(C(N)=O)cc12`, for which the inhibition in assay [1] is -8.47%; in assay [2] it was 7.09%; in assay [3] it was 55.9%; in [4] it was -3.42%; in assay [17], 100%; in assay [5], 101%. The inhibition is 65.6% in assay [6]; 49.3% in [7]; 2.24% in assay [9]; 15.4% in assay [11]; -9.81% in assay [12]; 88.4% in assay [14]. The inhibition in assay [15] was 20.2%; in [16], 63.4%.
Turning to `CNc1nc(NCc2ccc(NS(C)(=O)=O)cc2Cl)cc(-c2ccccn2)n1`, the inhibition was 60.3% in assay [1]; 7.8% in assay [18]; -5.61% in assay [2]; -4.41% in assay [3]; -8.14% in assay [4]; 77.9% in assay [17]. The inhibition in assay [5] was 3.99%; in [6] it was -3.24%; in [7], 42.1%; in [19], -0.08%; in [8], -8.26%; in [9] it was 73.2%. The inhibition in assay [10] was 54.8%; in assay [11], 50.4%; in [12] it was 8%; in assay [14], 47%; in assay [15] it was 87.2%; in assay [16], 39.1%.
As for `O=c1ccn([C@@H]2O[C@H](COP(=O)(O)OP(=O)(O)OP(=O)(O)O)[C@@H](O)[C@H]2O)c(=O)[nH]1`, the inhibition in assay [1] was 46.4%; in [20], -2.2%; in assay [18], 45.1%; in assay [3], 90.1%; in assay [4], -0.41%; in assay [17], 3.3%. For the same compound, the inhibition in assay [5] was 7.75%; in [6], -2.1%; in [7] it was 13.8%; in [19], -3.36%; in assay [8], 5.87%; in [9] it was 47.6%. For the same compound, the inhibition is 56.6% in assay [10]; 6.85% in [11]; 2.2% in assay [12]; 20.2% in assay [13]; 11.9% in [14]; 35.3% in assay [15]. Moreover, in assay [16], the inhibition was 34%.
As for `Cc1cn2cc(CC(=O)N3CCC4(CC3)CN(Cc3ccc(-n5nccn5)cc3Cl)C4)nc2s1`, the inhibition in [1] is -2.36%; in assay [18], -5.26%; in assay [2] it was 68.5%; in [3], 25.1%; in assay [4] it was 18.8%; in assay [6], -2.62%. Moreover, the inhibition is 11.6% in assay [7]; 1.22% in assay [19]; 3.15% in assay [8]; 35.7% in assay [9]; 0.99% in assay [10]; 35.9% in assay [11]. The inhibition in assay [12] was -6.22%; in assay [13], -4.31%; in assay [14], 17.5%; in assay [15], 52.1%; in [16] it was 43.3%.
Turning to `CCc1nn(CCCN2CCN(c3cccc(Cl)c3)CC2)c(=O)n1CCOc1ccccc1`, the inhibition was 82% in assay [1]; 30.7% in assay [20]; 77.7% in assay [18]; 69.7% in assay [3]; 13% in assay [4]; 97% in assay [17]. Also, the inhibition in assay [5] was 88%; in assay [6], -4.17%; in assay [7], 84.9%; in [19] it was 3.68%; in [8], -2.65%; in assay [9] it was 49.2%. In addition, the inhibition in assay [10] was 64.2%; in assay [11], 95.3%; in assay [12] it was 96%; in assay [13], 6.13%; in assay [14] it was 74.7%; in assay [15], 1.48%. In addition, the inhibition in assay [16] is 91.7%.
With `CCCNS(=O)(=O)Nc1ncnc(OCCOc2ncc(Br)cn2)c1-c1ccc(Br)cc1`, the inhibition was 42.8% in assay [1]; -6.56% in [2]; 15.2% in assay [3]; 23.6% in assay [4]; -0.31% in assay [5]; 42.3% in [6]. For the same compound, the inhibition was 67.2% in [7]; 1.52% in [8]; 1.8% in assay [9]; 51.2% in [10]; -8.41% in [11]; -1.25% in assay [13]. For the same compound, the inhibition in assay [14] was 2.99%; in [15] it was 15.8%; in assay [16] it was 30%.
